In patent publication US20200164026A1, “Intranasal Delivery of Cell Permeant Therapeutics” (The Trustees of Columbia University in the City of New York, priority 2010, published 2020):

Experiments:
rats subjected to tMCAo = experiment: Ischemic infarct volume (H&E) after intranasal Pen1-XBIR3 and tMCAo; assay type: in vivo, rat; conditions: 24 hpr, n=3
Procedure: Intranasal Delivery of Pen1-XBIR3. While under isofluorane anesthesia and lying on their backs, Pen1-XBIR3 (36.8 μM) was delivered to rats by administering 6 μl drops to alternating nares every two minutes for 20 minutes (60 μl total delivered). (Thorne, et al., Neuroscience 127 (2), 481-496 (2004)). Intranasal treatment was done prior to induction of stroke. Saline was used as a negative control. Brains were harvested for immunohistochemistry or western blotting.

[1] = system: cleaved caspase-6 (c1-C6) and caspase-9; experiment: Pen1-XBIR3 delivered to the striatum (CED/ICC) prior to tMCAo; immunostaining for c1-C6 and caspase-9; assay type: in vivo, rat; conditions: delivered to striatum 1 hr prior to tMCAo, 24 hpr
Description: (Davidson, et al., J Neurosci 24 (45), 10040-10046 (2004)). Upon entry into the cell the disulfide linkage is broken by the reducing environment of the cytoplasm, releasing the peptide cargo and allowing it to act at its target. Functional efficacy of this construct was confirmed using hippocampal neuronal cultures that were subjected to 4-hydroxynonenal (HNE) mediated death, a caspase-9 dependent death. (Rabacchi, et al., Neurobiol Aging 25 (8), 1057-1066 (2004)). […] To ensure that a Pen1-peptide could be delivered to the brain, Pen1 was linked to a FITC-labeled control peptide and delivered to the striatum using convection enhanced delivery (CED). Brains were harvested 24 hr after delivery, sectioned, and imaged. […] Pent-XBIR3 was delivered to the striatum 1 hr prior to tMCAo using ICC. Animals were harvested at 24 hpr and immunostained for caspase-9 and c1-C6. […]
Pen1-XBIR3. […] Linkage was assessed by 20% SDS-PAGE and western blotting with anti-His antibody. […]
Immunohistochemistry (IHC), Cell Process Quantification, and Statistical Analysis. […] Quantification of neurons and axons was accomplished using the Cell Counter plug-in for ImageJ (NIH). For quantification in the rat brain, 20x magnification images were acquired from the dorsal motor cortex and the […] somatosensory cortex forelimb region; both regions are contained are within the infarct penumbra (FIG. 1A). […]

Pen1-XBIR3: BIR3 domain from XIAP, a specific caspase-9 inhibitor, disulfide-linked to Penetratin1 cell transduction peptide (SEQ ID NO: 10)
ischemic infarct volume (rats subjected to tMCAo): reduces ischemic infarct volume | caspase-9 and c1-C6 immunostaining in neuronal soma and processes [1]: blocks the increase in caspase-9 and the induction of c1-C6 | caspase-9 and c1-C6 immunostaining in neuronal soma and processes ([1]; listed as Pent-XBIR3): inhibited appearance of c1-C6 and caspase-9
